Where “and” joins values, the source holds several entries; their conditions need not be identical. Equal entries are not always repeated.
How the values were obtained:
MpPA14 [1] = biological target: T1, MpPA14 (Marinomonas primoryensis, UniProt A1YIY3); experiment: Isothermal titration calorimetry; type: binding; conditions: 30°C; for ΔH (enthalpy) / ΔS (entropy) / binding stoichiometry (N value): ITC; for binding stoichiometry (N value): one-binding-site model; for Kd: Kd (dissociation constant, ITC), free sugar in solution
T1 sequence (A1YIY3 entry or part of it): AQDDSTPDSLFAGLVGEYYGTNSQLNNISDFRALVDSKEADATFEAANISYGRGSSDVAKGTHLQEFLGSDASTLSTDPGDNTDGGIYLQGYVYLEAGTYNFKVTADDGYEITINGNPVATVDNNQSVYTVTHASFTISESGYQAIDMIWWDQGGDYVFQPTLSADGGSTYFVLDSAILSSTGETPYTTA
Description: The ITC measurements produced rectangular hyperbolic curves for all three simple saccharides, and fitted well to a one-binding-site model with calculated binding stoichiometry (N) values being close to 1 ([12], [21]). […] However, this is to be expected, because the dextran beads used in the competition assay have multiple binding sites nearby that attract the lectin, whereas the calorimetry was done with free sugars in solution. […] In general, the affinity of lectins for monosaccharides (Kd values) lies within the high micromolar to millimolar range ([8], [30], [31]). […] Furthermore, negative enthalpy (ΔH) and entropy (ΔS) contributions were calculated for all three carbohydrates when they bound to MpPA14, which indicated the binding was driven primarily by polar interaction such as the formation of hydrogen and ionic bonds rather than by hydrophobic interactions. This was consistent with the observation that the Ca^2+-dependent ligand-binding site of MpPA14 consisted of mainly polar and charged amino acids without any residues with large hydrophobic side chains. We therefore acquired detailed structural information to study MpPA14 ligand recognition.
Isothermal titration calorimetry (ITC) measurements were performed at 30°C with a MicroCal VP-ITC instrument (Malvern). […] Sugars were automatically added by a rotating syringe (400 rpm) at 5-min intervals into the MpPA14 solution for a total of 50 injections. The data were analyzed with Origin software version 5.0 (MicroCal).

MpPA14 [2] = biological target: T1, MpPA14; experiment: Dextran-based comparative competition assay (MpPA14); type: binding
Description: To gain insight into the binding specificity of MpPA14, we investigated the relative affinity of various monosaccharides for the lectin by a comparative competition assay ([12]). MpPA14 bound to Superdex resin was competitively released into solution by the progressive addition of free sugars. The released protein concentrations measured by absorbance at 280 nm were plotted as a function of free sugar concentration to produce semiquantitative binding curves (Fig. 1A and B). The apparent dissociation constant (Kdapp) calculated from these binding curves was used as a relative measure of affinity for each assayed sugar (Table 1). […] D-Ribose bound […] more strongly than its derivative 2-deoxy-D-ribose (Kdapp of 6.8 mM as opposed to 18 mM; Fig. 1B and Table 1).
(§1) The dextran resin competition assay was performed as previously described for MhPA14 ([12]). Briefly, Superdex 200 (S200) resin was washed twice with 50 mM Tris-HCl (pH 9), 150 mM NaCl, and 5 mM CaCl2. One ml of 1 mg/ml MpPA14 with green fluorescent protein (GFP) fused to its N terminus (GFP-MpPA14) or VcPA14 labeled with FITC was suspended with 300 μl of equilibrated Superdex 200 (S200) resin. Following an incubation period with gentle mixing, the S200 resin bound with GFP-MpPA14 was pelleted by centrifugation. The pellet was washed twice with 50 mM Tris-HCl (pH 9), 150 mM NaCl, and 5 mM CaCl2, and the A280 of the supernatant from the second wash was used as the baseline reading. Next, after resuspension in the same buffer, aliquots of 1.67 μmol saccharide were sequentially added to the solution six or seven times, with the A280 of the supernatant being measured after each addition to quantify the release of lectin. The final addition of saccharide was […]. Data from the dextran affinity assay were plotted using GraphPad Prism after subtracting the background. Next, the data were fitted to a nonlinear regression of one-site-specific binding, which follows the model y/Bmax = x/(Kd + x), with Bmax as the maximum specific binding and Kd as the equilibrium binding constant.

[3] = test system: FITC-labeled MpPA14 binding to the diatom Chaetoceros neogracile; experiment: Diatom binding experiment with FITC-MpPA14; type: cell-based
Description: C. neogracile is a psychrophilic marine diatom found in Antarctic waters ([50]). […] Each diatom cell has 1 to 4 projections protruding from the corners. Given its photosynthetic capability, C. neogracile contains chlorophyll that is intrinsically fluorescent. […] We reason that glycans coating the diatom cell membrane present numerous end group binding sites in close proximity that can serve as a “molecular Velcro” for MpPA14 binding ([30]).
The Antarctic diatom, Chaetoceros neogracile, was cultured as previously described ([21], [50]). FITC-labeled MpPA14 or VcPA14 (FITC-MpPA14 or FITC-VcPA14, 0.2 mg/ml) in the presence or absence of sugars was incubated with diatoms in buffer (50 mM Tris-HCl [pH 9], 300 mM NaCl, and 5 mM CaCl2) with gentle mixing for 2 h. Next, diatoms were pelleted by centrifugation for 3 min at 7,000 rpm, and the resulting supernatant was discarded. This procedure was repeated three times to wash away unbound FITC-MpPA14 before the diatom pellet was finally resuspended in 20 μl buffer, which was then used to make slides for fluorescence microscopy. In a separate experiment to test if fucose could compete off the MpPA14 that was already bound to diatoms, FITC-MpPA14 was incubated with diatom for 1.5 h before fucose was added. The rest of the experiment followed the same procedure as described above.
(§2) Images were obtained using an Olympus IX83 inverted fluorescence microscope equipped with an Andor Zyla 4.2 Plus camera. Quantification of the fluorescence intensity was done using Fiji ImageJ. The corrected total cell fluorescence (CTCF) was calculated using the following formula: CTCF = integrated density − (area of selected cell × mean fluorescence of the background) ([60]). Quantification of 30 individual diatom cells was done for each treatment. Graphs were made using GraphPad Prism.

[4] = test system: FITC-labeled VcPA14 binding to C. neogracile; experiment: Diatom binding experiment with FITC-VcPA14; type: cell-based, Chaetoceros neogracile; conditions: 0.5 mM sugar
Method: (§3) As proof of concept for the antiadhesion strategy that targets microbial pathogens, we studied the VcPA14 lectin domain from a large 6,938-amino-acid RTX adhesin (GenBank accession number WP_154597608) of the cholera-causing bacterium, V. cholerae. As discussed, VcPA14 has a similar ligand-binding site as that of MpPA14 (Fig. S1), with key sugar-binding residues conserved (Fig. S1G).
The Antarctic diatom, Chaetoceros neogracile, was cultured as previously described ([21], [50]). FITC-labeled MpPA14 or VcPA14 (FITC-MpPA14 or FITC-VcPA14, 0.2 mg/ml) in the presence or absence of sugars was incubated with diatoms in buffer (50 mM Tris-HCl [pH 9], 300 mM NaCl, and 5 mM CaCl2) with gentle mixing for 2 h. […] This procedure was repeated three times to wash away unbound FITC-MpPA14 before the diatom pellet was finally resuspended in 20 μl buffer, which was then used to make slides for fluorescence microscopy. […]
as §2, with “Graphs were made using GraphPad Prism.” left out

VcPA14 = experiment: Dextran-based comparative competition assay (VcPA14); type: binding, Vibrio cholerae; conditions: FITC-VcPA14 on Superdex 200 resin
Method: as §3
as §1, with “Data from the dextran affinity assay were plotted using GraphPad Prism after subtracting the background. Next, the data were fitted to a nonlinear regression of one-site-specific binding, which follows the model y/Bmax = x/(Kd + x), with Bmax as the maximum specific binding and Kd as the equilibrium binding constant.” left out

Row | SMILES | ΔH (enthalpy) (MpPA14 [1]) | ΔS (entropy) (MpPA14 [1]) | binding stoichiometry (N value) (MpPA14 [1]) | Kd (MpPA14 [1]) | Kd (MpPA14 [2]) | fluorescent signal displaced (competitive effect) ([3]; 0.1 mM sugar, 0.2 mg/ml FITC-MpPA14) | effect on diatoms precoated with FITC-labeled MpPA14 (in words) ([3]; 0.5 mM sugar added after 1.5 h incubation of lectin with diatoms) | fluorescent signal displaced ([3]; 0.5 mM sugar, 0.2 mg/ml FITC-MpPA14) | blocking of FITC-VcPA14 binding to C. neogracile (in words) [4] | prevention of lectin binding to the diatom (in words) ([3]; 50 mM sugar, 0.2 mg/ml FITC-MpPA14) | relative binding to VcPA14 (in words) (VcPA14) | Kdapp (apparent dissociation constant) (MpPA14 [2]; GFP-MpPA14 bound to Superdex 200 resin released by free sugar, A280, pH 9, 5 mM CaCl2, – = no detectable binding (footnote a)) | Kd (MpPA14 [2]; GFP-MpPA14 bound to Superdex 200 resin released by free sugar, A280, pH 9, 5 mM CaCl2, – = no detectable binding (footnote a), read-out: Kdapp (apparent dissociation constant))
1 | OC[C@H]1OC(O)[C@H](O)[C@@H](O)[C@@H]1O (stereo partly drawn) [Glucose] | -10,880 ± 42.71 cal/mol | -20.1 cal/ mol/K | 0.952 ± 0.0216 | 350 µM | 1.36 mM and 1.4 mM | – | – | – | – | – | – | – | –
2 | C[C@H](O)[C@@H](O)[C@@H](O)[C@H](O)C=O [L-Fucose, L-fucose] | -11,800 ± 191.8 cal/mol | -21.4 cal/ mol/K | 1.01 ± 0.0131 | 147 µM and ~150 µM | 0.65 mM | ~40% | resulted in the dissociation of the lectin from the cells | 95% | largely blocked | – | – | – | –
3 | CC(=O)N[C@@H]1[C@@H](O)[C@@H](O)[C@@H](CO)O[C@@H]1O [N-acetyl-galactosamine] | – | – | – | – | – | – | – | – | – | unable to prevent the lectin from binding the diatom | cannot bind | no measurable interaction | > 18 mM
4 | CC(=O)N[C@@H]1[C@@H](O)[C@H](O)[C@@H](CO)O[C@H]1O [N-acetyl-glucosamine, N-acetylglucosamine] | -15,810 ± 226.1 cal/mol | -34.9 cal/ mol/K | 1 ± 0.0116 | 170 µM and ~150 µM | 1.07 mM | – | – | – | – | – | more strongly than glucose | – | –

Reference: paper PMC8092209, “Structural Basis of Ligand Selectivity by a Bacterial Adhesin Lectin Involved in Multispecies Biofilm Formation” (mBio, 2021)
